# In patent US20160083429A1, “COMPOSITIONS AND METHODS FOR ENDOTOXIN NEUTRALIZATION” (Immunotrex Biologics, Inc., priority 2014, published 2016):
# Columns and labels:
# THP-1 cell line = assay: Peptides block effect of LPS in THP-1 cell line; format: cell-based, human; settings: THP-1 stimulated with LPS 1 mg/mL, treated after 24 hours with peptide 0.5 mg/mL
# Experimental: THP-1 is a human monocytic cell line derived from an acute monocytic leukemia patient. It is typically used to test immunocytochemical analysis of protein-protein interaction and immunohistochemistry. THP-1 cell line can provide continuous culture, grown in suspension, for example, RPMI 1640+10% FBS+2 mM L-glutamine. The average doubling time is 35 to 50 hrs. To inhibit bacterial growth, 1 mM sodium pyruvate, penicillin (100 units/mL) or streptomycin (100 ug/mL) can be employed. Cultures are typically maintained at between 2-9×10^5 cells/mL at 37 degrees C., and 5% CO2. The cells are generally non-adhesive.
# THP-1 cell line in culture was stimulated with 1 mg/mL LPS.
# In contrast, THP-1 stimulated with LPS (1 mg/mL) and then treated after 24 hours with Peptide 1 (KK-12)(SEQ ID NO: 1) (0.5 mg/mL).
# [1] = ESI-MS competition ranking of Lipid A-binding propensities of peptides; settings: for relative binding affinity Ka with D-Lipid-A, competition KK-12 vs KK-11 / relative binding affinity Ka with D-Lipid-A, competition WK-11 vs KK-12 / relative binding affinity Ka with D-Lipid-A, competition WK-11 vs KK-11: 0.0032 mg/mL each peptide; for relative binding affinity Ka with D-Lipid-A, competition KK-12 vs KK-11: D-lipid-A 0.005 mg/mL; for relative binding affinity Ka with D-Lipid-A, competition WK-11 vs KK-12: D-lipid-A 0.001-0.0050 mg/mL, FIG. 20A; for relative binding affinity Ka with D-Lipid-A, competition WK-11 vs KK-12 / relative binding affinity Ka with D-Lipid-A, competition WK-11 vs KK-11: R-ratios; for rank order of relative binding affinities (Ka) to D-lipid-A, combined data of Example 4: combined competition data; for relative binding affinity Ka with D-Lipid-A, competition WK-11 vs KK-11: increasing D-lipid-A, FIG. 20B
# Excerpt: ESI-MS based methods were used to rank binding affinities of peptides WK-11, KK-12, and KK-11 to diphosphoryl lipid A in CHL/MeOH/H2O, 45%/55%/0.05%, unless otherwise specified.
# Materials and Chemicals were the same as shown in Example 3.
# Instrumentation included Micro-TOF ESI-MS (Bruker Daltonics); FT-ICR-MS NanoDrop-2000 UV-Vis Spectrophotometer.
# A series of ESI-MS competition experiments were designed to determine relative binding intensities of peptide-lipid A complexes in ESI-MS while varying the concentration of the D-lipid-A.
# Then, an equal concentration of both peptides was employed, while increasing the concentration of the D-lipid-A in three experiments, as shown in FIGS. 12-14. Double circles surround lipid-A bound to peptide WK-11 (“1”) or lipid-A bound to KK-12 (“2”).
# Resultant signal intensities of peptides and their complexes with D-lipid-A were used to plot R-ratios, determined as in Eq. 1, against D-Lipid-A concentrations.
# R═Itotal(peptide:Lipid)/Itotal(peptide) [Eq. 1]
# Comparison of the corresponding R-functions allows us to rank the peptides Ka binding constants, assuming that the value of the ratio between signal-response factors of complexes is approximately the same or deviates only weakly from the one for corresponding free peptides.
# Then, an equal concentration of both peptides was employed, while increasing the concentration of the D-lipid-A in three experiments, two of which are shown in FIGS. 17-18. Double circles surround lipid-A bound to peptide WK-11 (“1”) or lipid-A bound to KK-11 (“2”).
# Resultant signal intensities of peptides and their complexes with D-lipid-A were used to plot R-ratios, determined as in Eq. 1, against D-Lipid-A concentrations, as in Example 4B.
# [2] = ESI-MS detection of peptide-Lipid-A complex formation; format: binding; settings: CHL/MeOH/H2O solutions; D-Lipid-A 0.005 mg/mL
# Experimental: In this example, electrospray ionization mass spectrometry experiments were carried out on Lipid-A (D-Lipid-A) and peptides WK-11, KK-12, KK-11 under a variety of solution and mass spectrometry conditions. Binding of D-Lipid-A to WK-11, KK-12, KK-11 peptides was observed by mass spectrometry methods, as quite abundant ion (LipidA-peptide) complexes were detected from CHL/MeOH/H2O solutions.
# Materials: Three peptides KFFKKFFKFFKK (SEQ ID NO: 1; KK-12), WKKWWKKWWKK (SEQ ID NO: 2; WK-11), and KKKKFFFKFFK (SEQ ID NO: 3; KK-11) were ordered from a custom commercial synthesis. Diphosphoryl Lip-A (D-Lipid-A) (C94O25N2P2H178) was obtained from Sigma.
# Chemicals: chloroform (CHL), methanol (MeOH), Water (H2O), triethylamine (TEA), ammonium acetate.
# Instrumentation: Micro-TOF ESI-MS (Bruker Daltonics); Q-Star-XL nano-ESI-MS (AB-SCIEX).
# Solubility studies were performed in order to optimize the solubility of both the peptides and diphosphoryl Lipid A. Solution conditions for electrospray ionization mass spectrometry experiments on diphosphoryl Lipid A and peptides were evaluated using (CHL)X(MeOH)Y(H2O)Z, where X=0-70%; Y=0-70%; and Z=0-95%.
# In one experiment, Diphosphoryl Lipid A (0.005 mg/mL) and WK-11 (0.005 mg/mL) were dissolved in 70% CHL/30% MeOH/0.5% water and evaluated by ESI-MS. Electrospray ionization mass spectrometry (ESI-MS) of peptide WK-11 and Lipid-A and detection of complex formation is shown in FIG. 6. Single circles show fragments assigned to the peptide. Double circles show lipid A bound to peptide WK-11.
# In another experiment, Diphosphoryl Lipid A (0.005 mg/mL) and KK-12 (0.005 mg/mL) were dissolved in 70% CHL/30% MeOH/0.5% water and evaluated by ESI-MS. Single circles show fragments assigned to the peptide. Double circles show lipid A bound to peptide KK-12.
# In another experiment, Diphosphoryl Lipid A (0.005 mg/mL) and KK-11 (0.015 mg/mL) were dissolved in 30% CHL/68% MeOH/2% water and evaluated by ESI-MS. Single circles show fragments assigned to the peptide. Double circles show lipid A bound to peptide KK-11.
Substance,"effect on LPS-stimulated THP-1 cells (cell adherence, outer membrane shape and color) (THP-1 cell line)","relative binding affinity Ka with D-Lipid-A, competition KK-12 vs KK-11 [1]","relative binding affinity Ka with D-Lipid-A, competition WK-11 vs KK-12 [1]","rank order of relative binding affinities (Ka) to D-lipid-A, combined data of Example 4 [1]",binding to Lipid A (complex formation detected by ESI-MS) [2],"relative binding affinity Ka with D-Lipid-A, competition WK-11 vs KK-11 [1]"
KFFKKFFKFFKK [KK-12],appears to reverse the effects of LPS,Ka(KK-11)>Ka (KK-12),Ka(WK-11)>Ka(KK-12),Ka(WK-11)≧Ka(KK-11)>Ka(KK-12),specifically binds to Lipid A,–
"Angiotensin (DRVYIHPFHL; Angiotensin-1; UniProt P01019 25-34, looked up) [control standard peptide with size similar to KDEON peptides, reference compound]",–,–,–,–,no sign of binding propensity to D-Lipid-A,–
WKKWWKKWWKK [WK-11],–,–,Ka(WK-11)>Ka(KK-12),Ka(WK-11)≧Ka(KK-11)>Ka(KK-12),specifically binds to Lipid A,Ka(WK-11)≧Ka(KK-11)
KKKKFFFKFFK [KK-11],–,Ka(KK-11)>Ka (KK-12),–,Ka(WK-11)≧Ka(KK-11)>Ka(KK-12),specifically binds to Lipid A,Ka(WK-11)≧Ka(KK-11)
